# Source: patent publication US20230310627A1, “COMBINATION THERAPY WITH ANTI-TROP-2 ANTIBODIES AND PARP INHIBITORS” (priority 2021, published 2023)
# What was measured:
# colorectal cancer = settings: continuous olaparib administration; cited from earlier work
# TNBC xenografts = settings: nude mice bearing TNBC xenografts; independent of BRCA1/2 mutation status; cited from earlier work
# [1] = veliparib in combination with topotecan; cited from earlier work
# [2] = molecular target: T1, TOP1 cleavage complexes (TOP1CC) (Homo sapiens, UniProt P11387); assay: TOP1CC detection by RADAR assay and immunofluorescence; assay type: cell-based
# T1 construct: endogenous in cells; host or cells: MDA-MB-468 breast cancer cells (immunofluorescence); TNBC cell models (RADAR)
# T1 sequence (P11387 1-765): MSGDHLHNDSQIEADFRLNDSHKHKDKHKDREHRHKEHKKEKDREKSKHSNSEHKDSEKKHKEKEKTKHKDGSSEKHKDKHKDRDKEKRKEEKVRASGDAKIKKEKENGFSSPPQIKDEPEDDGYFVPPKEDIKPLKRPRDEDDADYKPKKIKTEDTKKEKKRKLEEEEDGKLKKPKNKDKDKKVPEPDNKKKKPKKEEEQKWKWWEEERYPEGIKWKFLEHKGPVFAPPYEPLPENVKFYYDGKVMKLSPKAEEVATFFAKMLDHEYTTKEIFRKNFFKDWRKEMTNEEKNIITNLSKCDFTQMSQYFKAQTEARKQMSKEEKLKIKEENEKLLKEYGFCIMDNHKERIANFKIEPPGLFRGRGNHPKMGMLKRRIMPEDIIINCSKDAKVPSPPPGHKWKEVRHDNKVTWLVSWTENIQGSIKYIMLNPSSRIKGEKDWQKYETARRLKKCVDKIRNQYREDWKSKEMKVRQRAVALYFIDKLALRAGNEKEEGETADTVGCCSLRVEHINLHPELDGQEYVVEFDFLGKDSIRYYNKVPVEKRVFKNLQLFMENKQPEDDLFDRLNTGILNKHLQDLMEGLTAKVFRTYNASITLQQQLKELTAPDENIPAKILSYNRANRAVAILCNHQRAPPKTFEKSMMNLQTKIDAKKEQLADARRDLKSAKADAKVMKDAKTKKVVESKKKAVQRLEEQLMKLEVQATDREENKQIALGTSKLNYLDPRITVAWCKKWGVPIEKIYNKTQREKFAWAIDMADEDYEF
# Procedure: Modification of the RADAR assay for detection of TOP1CC: Detection of TOP1CC was performed according to the published protocol (PMID: 34408146) with minor modification. After SG and/or TZP treatment, 1×10^6 cells per condition were washed with 1×PBS and lysed with 600 μl DNAzol (Invitrogen) at 4° C. for 10 min, followed by precipitation with 300 μl 100% ethanol. The nucleic acids were collected by centrifugation at 15,000 rpm for 10 min at 4° C., washed with 75% ethanol twice and resuspended in 200 μl TE buffer. The samples were then heated at 65° C. for 15 min, followed by shearing with sonication (40% output for 10 s pulse and 10 s rest for four times). […] The concentration of the sample was quantified by NanoDrop. […]
# Immunofluorescence: To visualize TOP1CC by immunofluorescence, cells were plated into 96-well plates having #1.5 glass coverslips (Cellvis, P98-1.5H-N). […] Images were compiled and quantified using ImageJ software.
# Without wishing to be bound by any theory, sequential PARPi is believed to enhance SG toxicity through stabilization of TOP1CC that persist following SG washout due to the high delivered SN38 concentration in tumor cells (FIG. 3A). TOP1CC was quantified by two methods: the RADAR (Rapid Approach to DNA Adduct Recovery) assay, which detects TOP1 covalently bound to DNA, and by immunofluorescence. […]
# [3] = tested on: patients with previously treated mTNBC; settings: phase III ASCENT; cited from earlier work
# [4] = tested on: phosphorylated histone H2AX (γH2AX); assay: Flow cytometry of phosphorylated histone H2AX (γH2AX); assay type: cell-based
# Procedure: Flow Cytometry: For flow cytometry detection of γH2AX (also known as g-H2AX), 1×10^6 cells were collected and fixed with 4% paraformaldehyde at 4° C. for 20 min and then permeabilized with 0.25% Triton X-100 in PBS. After blocking with 2% BSA in PBS at 4° C. for 20 min, the cells were stained with Alexa Fluor® 488 conjugated anti-phospho Histone H2A.X antibody (EMD Millipore, clone JBW301, #05-636-AF488) at 4° C. for 1 h. The cells were then washed twice with 2% BSA in PBS and counterstained with DAPI (Abcam, #ab228549). For flow cytometry detection of apoptotic cells, 1×10^6 cells were collected, and the staining was performed by using eBioscience™ Annexin V Apoptosis Detection Kit APC (Invitrogen, #88-8007) according to manufacturer's instruction. Samples were examined using a FACSAria flow cytometer. […]
# Without wishing to be bound by any theory, sequential PARPi is believed to enhance SG toxicity through stabilization of TOP1CC that persist following SG washout due to the high delivered SN38 concentration in tumor cells (FIG. 3A). TOP1CC was quantified by two methods: the RADAR (Rapid Approach to DNA Adduct Recovery) assay, which detects TOP1 covalently bound to DNA, and by immunofluorescence. […] Persistent TOP1CC are expected to lead to DNA damage including double-strand DNA breaks, which were quantified using flow cytometry to assess phosphorylated histone H2AX (γH2AX) staining. […]
# [5] = tested on: normal diploid cells (WI-38); assay: In vitro cytotoxicity of sequential SG then talazoparib in normal diploid cells; assay type: cell-based
# Procedure: Cell Lines and Cell Culture: All cell lines were obtained from the MGH Center for Molecular Therapeutics cell bank in and underwent high-density SNP typing to confirm their identity. All experiments shown were performed within less than 6 months' passage of all lines since acquisition. Cells were maintained at 37° C. in 5% CO2. MDA-MB-468 cells were grown in RPMI (Lonza) supplemented with 10% FBS (SAFC), 1% penicillin (Gibco), streptomycin (Gibco). WI-38 cells were grown in DMEM (Lonza) supplemented with 10% FBS (SAFC), 1% penicillin (Gibco), streptomycin (Gibco).
# TROP2-expressing TNBC cells or normal diploid cells were exposed to SG, followed by washout, then PARPi treatment with Talazoparib.
# patients with mTNBC = assay: Phase 1b/2 open-label study of SG in combination with talazoparib (NCT04039230); assay type: in vivo, human; settings: every 21 days
# Procedure: Study Design: In a Phase 1b/2, open-label study, SG was administered in combination with talazoparib for patients with mTNBC (clinicaltrials.gov#NCT04039230; FIG. 2A). Treatment cycles were continued until unacceptable toxicity or progression of disease at the discretion of the treating physician. Within 4 weeks prior to the first dose of study treatment administration, baseline evaluations were completed which included patient medical and surgical history, a physical examination with vital signs and performance evaluation, laboratories, and tumor assessment imaging. Once on active treatment, patients were administered SG and talazoparib over a 21 day cycle or 28 day cycle. […] All patients were monitored closely over the course of their treatment and NCI CTC v5.0 was used to grade all adverse events and provide dose reduction, delay, or cessation guidelines in the event of treatment-related toxicity. […]
# Study Population: Patients enrolled were 18 years of age or older with histological or cytological confirmation of TNBC as determined by the local institution, with metastatic disease documented by CT or MRI imaging, and currently have measurable disease by CT/MRI. […]
# Endpoints: Safety and tolerability of SG in combination with talazoparib was evaluated from adverse events, standard safety laboratories, physical examination, vital signs, and EKG. […]
compound,measurement,setting,value
O=C(c1cc(Cc2n[nH]c(=O)c3ccccc23)ccc1F)N1CCN(C(=O)C2CC2)CC1 [olaparib],toxicity of the combination with irinotecan,colorectal cancer,higher-than-expected toxicities and considered intolerable
same,tumor growth inhibition in combination with sacituzumab govitecan,TNBC xenografts,Synthetic lethality and synergistic inhibition of tumor growth
C[C@]1(c2nc3c(C(N)=O)cccc3[nH]2)CCCN1 [veliparib],MTD in the combination relative to single-agent MTD,[1],3%
CNCc1ccc(-c2[nH]c3cc(F)cc4c3c2CCNC4=O)cc1 [rucaparib],tumor growth inhibition in combination with sacituzumab govitecan,TNBC xenografts,Synthetic lethality and synergistic inhibition of tumor growth
sacituzumab govitecan [SG],TOP1CC following SG washout,[2],resolved entirely within two hours
same,median overall survival,[3],12.1 months
same,median progression-free survival,[3],5.6 months
same,DNA damage (γH2AX staining) after SG washout,[4],resolution of DNA damage within 24 hours
same,SG sensitivity (cytotoxicity),[5],little SG sensitivity
same,recommended phase-2 dose (R2PD),"patients with mTNBC; sequential SG on days 1,8 with talazoparib",10 mg/kg
CC[C@@]1(O)C(=O)OCc2c1cc1n(c2=O)Cc2cc3c(CN(C)C)c(O)ccc3nc2-1 [topotecan],MTD in the combination relative to single-agent MTD,[1],40%
Cn1ncnc1[C@H]1c2n[nH]c(=O)c3cc(F)cc(c23)N[C@@H]1c1ccc(F)cc1 [talazoparib],tumor growth inhibition in combination with sacituzumab govitecan,TNBC xenografts,Synthetic lethality and synergistic inhibition of tumor growth
same,recommended phase-2 dose (R2PD),patients with mTNBC; talazoparib on days 15-21 after SG,1 mg
